This is an account of results in patent US20260042764A1, “COMPOSITIONS AND METHODS FOR INHIBITION OF KRAS” (TheRas, Inc., priority 2022, published 2026).

The subject of assay [1] is Capan-2 cells (KRAS G12V). Kind of assay: Cell-based pERK HTRF assay in Capan-2 cells (Biological Example 5). The conditions noted are these: Homo sapiens, Capan-2, Capan-2 (KRAS G12V) cells. The procedure: (§1) Biological Example 5: Cell-based PERK HTRF assay in AsPC-1, SW1900, HPAC, Capan-2, RKN, H358, HCT116, KP-2, H1573, A549, MKN1, and HT1080 cells
(§2) The inhibition of ERK phosphorylation, as measured using the HTRF Advanced Phospho-ERK 1/2 (Thr202/Tyr204) Detection Assay kit (Perkin Elmer), was used to determine the effectiveness of test compounds in disrupting KRAS-driven protein/effector signaling in cells.
(§3) On day 1, cells were seeded into 96-well plates at 2.5×10^4 cells/well in 100 μL of complete growth media supplemented with 10% fetal bovine serum (FBS) and incubated at 37° C., in the presence of 5% CO2.
(§4) On day 2, cells were treated with compounds diluted in DMSO at 0.25% final DMSO concentration. Compounds were dosed in a 9-point concentration curve with three-fold dilution between concentrations. Cells were incubated in the presence of compound for two hours at 37° C. Following this treatment period, cells were harvested by aspirating the media, adding 40 μL of kit-supplied 1x lysis buffer per well, and shaking for 30 minutes at 250 rpm at room temperature.
(§5) Following cell lysis, samples were homogenized by pipetting up and down twenty times and 16 μL of cell lysate per well was transferred from the 96-well cell culture plate to two wells of a 384-well detection plate. A complete detection buffer was prepared by diluting D2 and Eu Cryptate antibodies 1:20 in kit-provided detection solution, 4 μL of complete detection buffer was then added to each well with lysate. Plates were incubated with gentle rocking for 24 hours at 4° C.
(§6) Following this incubation period, plates were centrifuged at 500×g for one minute and analyzed on a CLARIOstar plate reader. Data was imported into Microsoft Excel and the signal from the 665 nm channel was divided by the signal from the 620 nm channel. % pERK was calculated as: […]
(§7) Data was imported to the Prism software package (Graphpad) and EC50 values were calculated using the log (inhibitor) vs, response—variable slopc (Four parameters) model.
On the technique in general: Time-resolved FRET reads energy transfer from a long-lived donor to a nearby acceptor.

The subject of the next assay is AsPC-1 cells (KRAS G12D). Nature of the assay: Cell-based pERK HTRF assay in AsPC-1 cells (Biological Example 5). The conditions noted are these: Homo sapiens, ASPC1, AsPC-1 (KRAS G12D) cells. The method, then:
as §1, §2, §3, §4, §5, §6, §7

The next assay concerns RKN cells (KRAS G12V). Kind of assay: 3D Cell viability assay in RKN cells (Biological Example 6). Type of assay: cell-based. The conditions noted are these: RKN (KRAS G12V) spheroids, 72 hours. The method, then: (§8) Biological Example 6: 3D Cell viability assay in AsPC-1, SW1900, HPAC, Capan-2, RKN, H358, HCT116, KP-2, H1573, A549, MKN1, and HT1080 cells
(§9) The inhibition of cellular viability as a result of test compound treatment in a spheroid assay was measured using the CellTiter-Glow 3D Cell Viability Assay (Promega).
(§10) On Day 1, 1000 cells per well were seeded in 150 μL of complete growth media supplemented with 10% fetal bovine serum (FBS) and incubated at 37° C., in the presence of 5% CO2 in 96-well ultra-low attachment microplates (Corning) for 48 hours undisturbed to allow spheroids to form.
(§11) Following spheroid formation, cells were treated with compounds diluted in DMSO at 0.25% final DMSO concentration. Compounds were dosed in a 9-point concentration curve with three-fold dilution between concentrations. Cells were incubated in the presence of compound for 72 hours at 37° C., in the presence of 5% CO2.
(§12) Following this incubation period, the kit-provided CTG reagent was allowed to equilibrate for 30 minutes at room temperature, 150 μL of equilibrated CTG reagent was added to each well, and the plate was sealed before shaking at 250 rpm for 10 minutes at room temperature to lyse the cells, 150 μL of lysate per well was transferred to a 96-well plate and luminescence was read on a CLARIOstar plate reader.
(§13) Data was imported into the Prism software package (Graphpad) and EC50 values were calculated using the log (inhibitor) vs, response—variable slope (Four parameters) model.

For assay [2], the system named is SW1900 cells (KRAS G12D). Nature of the assay: Cell-based pERK HTRF assay in SW1900 cells (Biological Example 5). The note with it: Homo sapiens, SW1990, SW1990 cells (text: SW1900, KRAS G12D). The method, then: as §1, §2, §3, §4, §5, §6, §7
In the next assay the test system is H358 cells (KRAS G12C). Kind of assay: 3D Cell viability assay in H358 cells (Biological Example 6). The note with it: Homo sapiens, NCI-H358; H358 (KRAS G12C) spheroids, 72 hours. It is filed as cell-based. The method, then: as §8, §9, §10, §11, §12, §13
Assay [3] relates to SW1900 cells (KRAS G12D). Nature of the assay: 3D Cell viability assay in SW1900 cells (Biological Example 6). It is filed as cell-based. The conditions noted are these: Homo sapiens; SW1990 (text: SW1900, KRAS G12D) spheroids, 72 hours. The method, then:
as §8, §9, §10, §11, §12, §13

Assay [4] relates to MKN1 cells (KRAS amplification). Kind of assay: 3D Cell viability assay in MKN1 cells (Biological Example 6). Type of assay: cell-based. The note with it: Homo sapiens, MKN-1; MKN (MKN1, KRAS amplification) spheroids, 72 hours. The method, then:
as §8, §9, §10, §11, §12, §13

Assay [5] relates to Capan-2 cells (KRAS G12V). Kind of assay: 3D Cell viability assay in Capan-2 cells (Biological Example 6). Type of assay: cell-based. The conditions noted are these: Homo sapiens; Capan-2 (KRAS G12V) spheroids, 72 hours. The method, then: as §8, §9, §10, §11, §12, §13
Assay [6] relates to HT1080 cells (NRAS). Nature of the assay: 3D Cell viability assay in HT1080 cells (Biological Example 6). Type of assay: cell-based. The note with it: Homo sapiens, HT-1080; HT1080 (NRAS) spheroids, 72 hours. The method, then:
as §8, §9, §10, §11, §12, §13

The test system of assay [7] is HT1080 cells (NRAS). Nature of the assay: Cell-based pERK HTRF assay in HT1080 cells (Biological Example 5). The conditions noted are these: Homo sapiens, HT-1080. The method, then:
as §1, §2, §3, §4, §5, §6, §7

As for `C/C=C/C(=O)N1CC[C@H](N(CC)c2nc(OC[C@@]34CCCN3C[C@H](F)C4)nc3c(F)c(-c4ccc(F)c5sc(N)c(C#N)c45)c(C(F)(F)F)cc23)C1` (atropisomer, axis not shown) [Compound 674], the IC50 (in [1]; in the assay on AsPC-1 cells (KRAS G12D); with RKN cells (KRAS G12V); with SW1900 cells (KRAS G12D) [2]; with H358 cells (KRAS G12C); in the assay on SW1900 cells (KRAS G12D) [3]) was at most 100 nM each time. Also, the IC50 in [4] and in assay [5] was at most 100 nM each time.
As for `CCN(c1nc(OC[C@@]23CCCN2C[C@H](F)C3)nc2c(F)c(-c3ccc(F)c4sc(N)c(C#N)c34)c(C(F)(F)F)cc12)[C@H]1CCN(C(=O)N2CC(F)C2)C1` (atropisomer, axis not shown) [Compound 606], the 50% inhibitory concentration (IC50) (in assay [1]; in the assay with AsPC-1 cells (KRAS G12D); in the assay on RKN cells (KRAS G12V); in the assay with SW1900 cells (KRAS G12D) [2]; with H358 cells (KRAS G12C); in the assay on SW1900 cells (KRAS G12D) [3]) was at most 100 nM in each case. For the same compound, the half-inhibitory concentration (IC50) in assay [4] and in [5] was at most 100 nM in each case.
Turning to `CCN(c1nc(OC[C@@]23CCCN2C[C@H](F)C3)nc2c(F)c(-c3ccc(F)c4sc(N)c(C#N)c34)c(C(F)(F)F)cc12)[C@H]1C[C@@H](C)N(C(=O)C2COC2)C1` (atropisomer, axis not shown) [Compound 586], the IC50 (in [1]; in the assay with AsPC-1 cells (KRAS G12D); in the assay on RKN cells (KRAS G12V); in the assay with SW1900 cells (KRAS G12D) [2]; in the assay on H358 cells (KRAS G12C); in the assay on SW1900 cells (KRAS G12D) [3]) was at most 100 nM each time. The 50% inhibitory concentration (IC50) in [4] and in [5] was at most 100 nM throughout.
With `CCN(c1nc(OC[C@@]23CCCN2C[C@H](F)C3)nc2c(F)c(-c3ccc(F)c4sc(N)c(C#N)c34)c(C(F)(F)F)cc12)[C@H]1CCN(C(=O)C2CC2)[C@@H]1C` (atropisomer, axis not shown) [Compound 579], the IC50 (in [1]; in the assay on AsPC-1 cells (KRAS G12D); in the assay with RKN cells (KRAS G12V); with SW1900 cells (KRAS G12D) [2]; in the assay on H358 cells (KRAS G12C); with SW1900 cells (KRAS G12D) [3]) was at most 100 nM throughout. Also, the half-inhibitory concentration (IC50) in [4] and in [5] was at most 100 nM each time.
With `CCN(c1nc(OC[C@@]23CCCN2C[C@H](F)C3)nc2c(F)c(-c3ccc(F)c4sc(N)c(C#N)c34)c(C(F)(F)F)cc12)[C@H]1C[C@H](C)N(C(=O)OC)C1` (atropisomer, axis not shown) [Compound 704], the IC50 (in assay [1]; with AsPC-1 cells (KRAS G12D); in the assay on RKN cells (KRAS G12V); in the assay with SW1900 cells (KRAS G12D) [2]; with H358 cells (KRAS G12C); with SW1900 cells (KRAS G12D) [3]) was at most 100 nM in each case. In addition, the concentration for half-maximal inhibition (IC50) in [4] and in assay [5] was at most 100 nM throughout.
For `CCN(c1nc(OC[C@@]23CCCN2C[C@H](F)C3)nc2c(F)c(-c3ccc(F)c4sc(N)c(C#N)c34)c(C(F)(F)F)cc12)[C@H]1C[C@H](C)N(C(C)=O)C1` [Compound 463], the IC50 – broadly, the concentration needed to halve the response being measured – was at most 100 nM in assay [1]; 100 to 1000 nM in the assay with AsPC-1 cells (KRAS G12D); over 1000 nM with HT1080 cells (NRAS) [6]; at most 100 nM in the assay with SW1900 cells (KRAS G12D) [2]; over 1000 nM with HT1080 cells (NRAS) [7]; at most 100 nM with H358 cells (KRAS G12C). For the same compound, the concentration for half-maximal inhibition (IC50) (in the assay on SW1900 cells (KRAS G12D) [3]; in assay [4]; in assay [5]) was at most 100 nM throughout.
